# According to publication PMC7170311 (Journal of Enzyme Inhibition and Medicinal Chemistry, 2020):
# Target: T1, Gal4-DBD-RXRα-LBD (Homo sapiens, UniProt P19793)
# T1 sequence (P19793 227-458 limits assumed): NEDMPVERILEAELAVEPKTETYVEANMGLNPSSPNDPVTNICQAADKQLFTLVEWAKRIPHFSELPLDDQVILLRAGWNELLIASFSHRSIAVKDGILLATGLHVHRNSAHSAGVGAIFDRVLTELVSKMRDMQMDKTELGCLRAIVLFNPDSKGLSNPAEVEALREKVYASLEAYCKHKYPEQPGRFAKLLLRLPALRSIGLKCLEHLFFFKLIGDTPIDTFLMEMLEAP
# Assay: cell-based
# Conditions: HEK-293T, read-out: inhibition of 9-cis-RA-induced RXRα transactivation
smiles,measurement,value
"Cc1ccc(NC(=O)NNC(=O)c2ccc(Nc3nccc(-c4cccnc4)n3)cc2)cc1 [Compound 6k, 2-(4-((4-(pyridin-3-yl)pyrimidin-2-yl)amino)benzoyl)-N-(p-tolyl)hydrazine-1-carboxamide]",inhibition at 1 µM,> 50%
